Assay results as given in US10401361B2, “Intracellular organelle peptide targeted enzyme substrates” (Marker Gene Technologies, Inc., priority 2009, dated 2019).

System: mannosidase
Experiment: Staining with targeted mannosidase substrates after incubation with mannosidase inhibitor
Assay type: cell-based, human
Conditions: 100 uM inhibitor, 1 day (Golgi) or 5 days (ER); substrate 20 uM, 4 hours; AG06173, FIG. 2
Description: Normal, healthy human lung fibroblasts (Cell line AG06173, Coriell Institute for Medical Research, Camden, N.J.) were prepared according to example 17 and plated in an optical bottom 96 well plate at 1×10^4 cells/mL.
Cells were then incubated at 37° C. and 5% CO2 in complete EMEM and incubated for 1 (Golgi) or 5 days (ER) at 37° C., 5% CO2 with or without the mannosidase inhibitor swainsonine at 100 uM. The appropriate targeted substrate for staining either the ER or Golgi was then applied at a final concentration of 20 uM and incubated for 4 hours at 37° C., 5% CO2.
Following incubation the cells were washed in PBS and bathed in Opti-Klear™ Imaging Buffer (Marker Gene Technologies, Inc Eugene Oreg.) with or without nuclear stain Hoechst 33342. Cells were then imaged on an EVOS Auto-FL fluorescence microscope (Life Technologies) fitted with a TexasRed™ light cube.

SMILES: O[C@H]1[C@H]2[C@H](O)CCCN2C[C@H]1O [swainsonine]
- effect on mannosidase activity seen by targeted substrate staining: reduction in enzyme activity
